Columns and labels:
[1] = system: MART-1 peptide-specific CD8+ T cells; experiment: Priming of MART-1 peptide-specific CD8+ T cells by moDCs (pentamer staining); format: cell-based, human; conditions: DCs treated 24 hours with 20 μM PPMP or 150 μM NB-DGJ one day after transduction
Method: The DCs were first transduced by BV-CMV.CD1d-WPRE and pulsed with or without 100 ng/ml α-GC for 24 h one day after transduction. Two days after transduction, the DCs were pulsed with 10 μg/ml MART-1 peptide for 4 h. After washing, 10^5 DCs were co-cultured with 10^6 HLA A2+ PBLs in complete RPMI 1640. After co-culture of 9 days, to detect antigen-specific CTLs, the samples were stained with APC mouse anti-human CD3, FITC-labeled anti-CD8 (ProImmune) and R-PE-labeled A*0201/[…] Pentamer (ProImmune) and analyzed by FACSAria flow cytometer. In some experiments, the CD1d-overexpressing human DCs were pretreated with anti-CD1d blocking antibody (eBioscience, San Diego, Calif.) or its isotype control (eBiosciecne) before applying for T cell priming. To study the effect of glycolipid biosynthesis inhibition on T cell priming, the BVCD1d-transduced human DCs were treated with 20 μM DL-threo-1-Phenyl-2-palmitoylamino-3-morpholino-1-propanol (PPMP; Sigma-Aldrich) or 150 μM N-(n-Butyl)deoxygalactonojirimycin (NB-DGJ; Merck KGaA, Darmstadt, Germany) for 24 hours one day after transduction. In other experiments, the cocultures were restimulated with 10^5 MART-1 peptide-pulsed DCs on day 9 of coculture and analyzed one week after restimulation. […]

[2] = system: MART-1 peptide-specific CD8+ T cells; experiment: Priming of MART-1 peptide-specific CD8+ T cells by H1.DCs (pentamer staining); format: cell-based, human; conditions: for T cell priming ability of CD1d-overexpressing H1.DCs: DCs treated 24 hours with 20 μM PPMP or 150 μM NB-DGJ one day after transduction
Method: The DCs were first transduced by BV-CMV.CD1d-WPRE and pulsed with or without 100 ng/ml α-GC for 24 h one day after transduction. Two days after transduction, the DCs were pulsed with 10 μg/ml MART-1 peptide for 4 h. After washing, 10^5 DCs were co-cultured with 10^6 HLA A2+ PBLs in complete RPMI 1640. After co-culture of 9 days, to detect antigen-specific CTLs, the samples were stained with APC mouse anti-human CD3, FITC-labeled anti-CD8 (ProImmune) and R-PE-labeled A*0201/[…] Pentamer (ProImmune) and analyzed by FACSAria flow cytometer. In some experiments, the CD1d-overexpressing human DCs were pretreated with anti-CD1d blocking antibody (eBioscience, San Diego, Calif.) or its isotype control (eBiosciecne) before applying for T cell priming. To study the effect of glycolipid biosynthesis inhibition on T cell priming, the BVCD1d-transduced human DCs were treated with 20 μM DL-threo-1-Phenyl-2-palmitoylamino-3-morpholino-1-propanol (PPMP; Sigma-Aldrich) or 150 μM N-(n-Butyl)deoxygalactonojirimycin (NB-DGJ; Merck KGaA, Darmstadt, Germany) for 24 hours one day after transduction. In other experiments, the cocultures were restimulated with 10^5 MART-1 peptide-pulsed DCs on day 9 of coculture and analyzed one week after restimulation. To measure antigen-specific CTL activity, the cocultures were stimulated for the third time on day 7 after second stimulation with 10^5 MART-1 peptide-pulsed DCs and used as effectors for lysis of tumor cells one week later.

Row | SMILES | T cell priming ability of CD1d-overexpressing moDCs [1] | T cell priming ability of CD1d-overexpressing H1.DCs [2] | priming ability of CD1d-overexpressing H1.DCs with α-GC loading ([2]; compared with those without α-GC loading (p<0.04)) | effect of α-GC loading on priming of antigen-specific CD8+ T cells ([2]; mock-transduced, BV-PacPAK6-transduced and CD1d-overexpressing H1.DCs, 100 ng/ml α-GC)
1 | CCCCCCCCCCCCCCCC(=O)N[C@H](CN1CCOCC1)[C@H](O)c1ccccc1 (racemic) [PPMP, DL-threo-1-Phenyl-2-palmitoylamino-3-morpholino-1-propanol] | inhibited | inhibited | – | –
2 | CCCCN1C[C@H](O)[C@@H](O)[C@@H](O)[C@H]1CO [NB-DGJ, N-(n-Butyl)deoxygalactonojirimycin] | inhibited | inhibited | – | –
3 | CCCCCCCCCCCCCCCCCCCCCCCCCC(=O)N[C@@H](CO[C@H]1O[C@H](CO)[C@H](O)[C@H](O)[C@H]1O)[C@H](O)[C@H](O)CCCCCCCCCCCCCC [α-GC, α-galactosylceramide] | – | – | significantly decreased | no obvious beneficial effect
